Measured values taken from patent US12403122B2, “Method for treating amyotrophic lateral sclerosis using quercetin-containing compositions” (Quercis Pharma AG, priority 2021, dated 2025).
“Also recorded” adds a separate entry of the source.

What was measured:
[1] = test system: SOD1G93A mutant rat model of ALS; test: Immunohistochemical staining of spinal cords after post-paralysis isoquercetin treatment (Example 1); format: in vivo; details: SOD1G93A rats, versus vehicle
Protocol: Materials and Methods: Animals: Male SOD1G93A progeny were used for further breeding to maintain the line. Rats were housed in a centralized animal facility with a 12-h light-dark cycle with ad libitum access to food and water. Perfusion with fixatives was performed under 90% ketamine-10% xylazine anesthesia and all efforts were made to minimize animal suffering, discomfort, or stress. All procedures using laboratory animals were performed in accordance with the national and international guidelines and were approved by the Institutional Animal Committee for animal experimentation. Male hemizygous NTac:SD-TgN (SOD1-G93A)L26H rats (Taconic), originally developed by Howland et al. (2002), were bred locally by crossing with wild-type nontransgenic Sprague-Dawley female rats.
Treatment with Isoquercetin: All rats were weighed and evaluated for motor activity daily.
Fixed spinal cords were removed, postfixed by immersion for 24 h, and then transverse sectioned ([…]) in a Leica cryostat. Serial sections were collected in 100 mM PBS for immunohistochemistry.

[2] = test system: rat model of ALS; details: downregulation of aberrant glial cells and reactive microglia; cited from earlier work

SMILES | number of ventral horn motor neurons expressing misfolded SOD1 and Ubiquitin ([1]; 15 days after paralysis onset) | microgliosis: number of Iba1+ cells in the ventral horn of the lumbar spinal cord ([1]; oral 30 mg/kg/day for 15 days starting after paralysis onset, 30 mg/kg/day) | number of hypertrophic (reactive, GFAP-positive) astrocytes surrounding motor neurons in the lumbar spinal cord ([1]; oral 30 mg/kg/day for 15 days starting after paralysis onset, given together with vitamin C and niacin, 30 mg/kg/day) | paralysis progression [2]
O=c1c(O[C@@H]2O[C@H](CO)[C@@H](O)[C@H](O)[C@H]2O)c(-c2ccc(O)c(O)c2)oc2cc(O)cc(O)c12 [isoquercetin, quercetin-3-O-β-d-glucopyranoside] | apparently reduced; also recorded: significant reduction | significantly reduced; also recorded: Significant reduction | significantly reduced; also recorded: significant reduction | –
Cc1ccc(NC(=O)c2ccc(CN3CCN(C)CC3)cc2)cc1Nc1nc(-c2cccnc2)cs1 [masitinib] | – | – | – | slowed paralysis progression
